{
  "source": "patent US20090233917A1",
  "about": "“Stroke recovery” (priority 2006, published 2009)",
  "key": {"[1]": {"tested_on": "rat cortical neurons (mixed cortical cultures)", "experiment": "Oxygen/glucose deprivation (OGD) of rat cortical neurons, cell death by LDH release", "assay_type": "cell-based, Wistar rat", "details": "all concentrations (0.1-50 μM) except 0.2 μM; added one hour after onset of OGD", "protocol": "Mixed cortical cultures were prepared from E18 Wistar rat embryos (National Animal Center, Kuopio, Finland). The cortices were dissected and the tissue cut into small pieces. The cells were separated by fifteen minute incubation with DNase and papain. The cells were collected by centrifugation (1500 rpm, 5 min). The tissue was triturated with a pipette and the cells were placed on poly-L-lysine coated 48-well plates, 300,000 cells/cm2, in MEM (2 g/L glucose) supplemented with 2 mM glutamine, 0.1 μg/mL gentamicin, 10% heat-inactivated fetal bovine serum (FSB-HI) and 10% heat-inactivated horse serum (HS-HI). After 3-4 hours, the medium was changed to MEM (2 g/L glucose) and supplemented with 2 mM glutamine, 0.1 μg/mL gentamicin, 5% HS-HI. After three days in vitro, cells were transferred into medium containing MEM (2 g/L glucose) supplemented with glutamine, gentamicin and 5% each of FSB-HI and HS-HI sera. On day 6 in vitro, unwanted cell division was inhibited by adding cytosine arabinoside (10 μM final concentration) for 24 hours. […]\nAfter 24 hours, possible cell debris was removed by centrifugation (13,000 rpm, 3 min.). […] The absorbance at 340 nm was measured immediately using a 3 min. kinetic measurement protocol in Multiskan ELISA reader (Labsystems, Finland). The change in absorbance/min was determined, which is directly proportional to the released LDH (=cell death)."}, "[2]": {"tested_on": "embolic middle cerebral artery occlusion (MCAO) in rats", "experiment": "Functional recovery following embolic MCAO in rats (Example 13)", "assay_type": "in vivo, Wistar rats", "details": "for foot fault test, compared to EPO treatment group: 10 h treatment group", "text": "The purpose of this study was to evaluate the efficacy of arimoclomol in enhancing neurological recovery in a model of embolic middle cerebral artery occlusion (MCAO) in rats (Zhang R L et al. Brain Research 766:83-92, 1997). The embolic MCAO model emulates the damage caused by an embolic stroke which is generally the result of ischemia associated damage or diseases. The embolic MCAO model also closely models the types of damage caused by a stroke because the occlusion is not permanent. Moreover, the embolus often undergoes spontaneous clot lysis and reperfusion within 24-48 hours post-stroke, which is similar to a subset of human stroke. Damage from a stroke can be brought about in two ways. […] Second, the resulting pressure from the initial surge in blood volume once the occlusion is cleared can also result in further neurological damage and damage to the effected blood vessel. This embolic stroke model provides guidance for the neurological recovery resulting from each of these phenomena.\nSixty male Wistar rats between 8-12 weeks of age were operated on to isolate the external carotid artery (ECA) and the internal carotid artery (ICA). A single clot was introduced into the ECA lumen through a PE-50 catheter (0.3 mm outer diameter) attached to a 100 μL Hamilton syringe filled with 0.9% saline via a small puncture. A 16 mm length of the PE-50 catheter was advanced from the ECA into the lumen of the ICA. Subsequently, the clot was injected into the ICA with 2-3 μL of 0.9% saline. The catheter was withdrawn and the right ECA ligated.\nThe rats were then randomly divided into 6 groups of 10 animals each. To the control group, phosphate buffered saline (PBS) was administered, p.o., starting at six hours after embolic stroke for 28 consecutive days. To the second group, Erythropoitein (EPO) was administered, i.p., starting at 24 hours after embolic stroke for 7 consecutive days (41.7 μg/kg/d). To the third group, arimoclomol was administered daily p.o. (200 mg/kg/d), starting 6 hours after embolic stroke for 28 consecutive days. To the fourth group, arimoclomol was administered daily p.o. (200 mg/kg/d), starting 10 hours after embolic stroke for 28 consecutive days. To the fifth group, arimoclomol was administered p.o. (200 mg/kg/d), starting 24 hours after embolic stroke for 28 consecutive days. To the sixth group, arimoclomol was administered p.o. (200 mg/kg/d), starting 48 hours after embolic stroke for 28 consecutive days.\nAnimals were evaluated at 1, 3, 7, 14, 21, and 28 days after initiation of embolic stroke by a modified neurological severity score (mNSS) and adhesive-removal and foot fault tests. These tests are widely accepted as standard tests indicative of functional recovery after a stroke. (Chen et al., Ann Neurol 53: 743-751, 2003; Wang et al., Stroke 35: 1732-1737, 2004; Zhang et al, Circulation 3486-3494, 2005).\nFor the modified neurological severity score (mNSS), the severity of injury was graded on a scale of 0 to 18. This score was determined via the evaluation of a variety of motor tests, sensory tests, balance beam tests and reflex tests as illustrated in Table II below. To determine the score resulting from these tests, one point was awarded for the inability to perform any of the tests or for the lack of a tested reflex. Accordingly, the higher the score, the more severe the injury. (Chen et al., Ann Neurol 53: 743-751, 2003; Wang et al., Stroke 35: 1732-1737, 2004; Zhang et al, Circulation 3486-3494, 2005).\nFor the adhesive removal test, the rats are trained prior to embolic stroke to remove strips of packing tape (5 cm). The training period constitutes of 3 sessions. Each session consists of 6 bilateral stimulation trials conducted over 2 days wherein the 5 cm strips of packing tape were placed firmly around both wrists of the animal so that they covered the hairless part of the forepaw. […]"}, "[3]": {"details": "6 h, 10 h, and 24 h treatment groups, on and after the 14-day time point"}},
  "data": [
    {"smiles": "[O-][n+]1cccc(/C(Cl)=N/OC[C@H](O)CN2CCCCC2)c1", "note": "[arimoclomol, N-[2-hydroxy-3-(1-piperidinyl)propoxy]-pyridine-1-oxide-3-carboximidoyl chloride]", "values": [
      {"measurement": "cytoprotection against OGD as measured by LDH release", "setting": "[1]", "value": "cytoprotective"},
      {"measurement": "adhesive-removal test, recovery compared to control group", "setting": "[2]; 200 mg/kg/d p.o., start 6 h, 10 h, 24 h and 48 h after embolic stroke, after the 14 day time point", "value": "significantly superior"},
      {"measurement": "foot fault test, recovery compared to control groups", "setting": "[2]; [3]", "value": "significantly superior"},
      {"measurement": "mNSS test, recovery compared to control groups", "setting": "[2]; [3]", "value": "significantly greater"},
      {"measurement": "infarct volume compared to control groups", "setting": "[2]; 6 h and 10 h treatment groups, after 28 days of treatment", "value": "significantly lower percentage of infarct volume"},
      {"measurement": "foot fault test, compared to EPO treatment group", "setting": "[2]; 21-day time point", "value": "significantly superior"},
      {"measurement": "foot fault test, compared to EPO treatment group", "setting": "[2]; 28-day time point", "value": "slightly superior"},
      {"measurement": "adhesive-removal test, improvement percentage compared to control", "setting": "[2]; day 28, each time group (6, 10, 24, 48 h)", "value": "greater than 25%"}
    ]}
  ]
}
